{
  "source": "patent US10888569B1",
  "about": "“Methods and compositions for treating cancer” (THE UNIVERSITY OF CHICAGO, priority 2017, dated 2021)",
  "key": {"[1]": {"system": "MB436 xenograft tumors", "conditions": "hemin 50 mg/kg/day i.p. 10 consecutive days prior to metformin 200 mg/kg", "experimental": "Two million human breast cancer cells (MDA-MB-436-shCont, MDA-MB-436-shBACH1, BM1-shBACH1, or BM1-shCont) in 100 μl PBS were injected into the mammary fat pads of 5 to 6 weeks old athymic nude female mice (Charles River Laboratories). When tumors were about 20-30 or 50 mm^3 in volume, hemin (50 mg/kg/day) or vehicle (20 mM NaOH in phosphate buffered saline) was injected intraperitoneally for 10 days prior to metformin treatment for 8 weeks. Metformin (200 mg/kg for MDA-MB-436 cells or 300 mg/kg for BM1-cells) was provided in drinking water ad libidum. Tumor growth was monitored weekly by caliper measurement in two dimensions to generate ellipsoid volumes using an equation of vol.=0.4×(L×W^2)."}, "[2]": {"system": "TNBC cells (BM1)", "experiment": "Metabolic phenotypes OCR and ECAR (Seahorse analyzer)", "type": "cell-based, human", "conditions": "hemin (pre-)treatment overnight", "method": "TNBC cell lines stably knocked down with lenti-viral shRNA for BACH1 were constructed and maintained as described previously. Gene expression analysis of cultured cells and isolated tumor tissues used a Reverse transcriptase kit followed by Roche96 cycler for real time mRNA quantification and Lycor imaging for immunoblotting. For in vitro cell viability assay with mitochondrial inhibitors, TNBC cells (2×10^3-5×10^3/well) seeded on 96 well plates overnight with culture media (DMEM with 25 mM Glucose) were treated with inhibitors in fresh culture media (DMEM with 1.25 mM Glucose) for 48 and 72 hours and stained with calcein AM and/or monitored for cellular confluency using an IncuCyte Zoom Live Cell Analysis system. Extracellular flux analyzer was used to assay metabolic phenotypes of BACH1-depleted TNBC cells and TNBC cells that are treated with hemin overnight before assays. For bioinformatics analysis using primary patient data cohort (TCGA), cBioportal and R were used.\nExtracellular acidification rates (ECAR) and oxygen consumption rates (OCR) were monitored by a Seahorse Bioscience Analyzer (XF24; Univ. of Illinois at Chicago and XFe96; Biophysics Core Facility at Univ. of Chicago). Cells were seeded in 24 well plates at a density of 5×10^4 and 96 well plates at a density of 8×10^3 cells per well with growth media for at least 18 hours. The following day, media was changed to base media (DMEM, 143 mM NaCl, Phenol red, pH 7.35). For ECAR analysis, cells were added with media (2 mM Glutamine, pH 7.35) and monitored every 3 minutes following successive administration of 10 mM of glucose, and inhibitors such as 1 μM of oligomycin and 50 mM of 2-DG. For OCR analysis, cells were added with mito stress test base media (10 mM Glucose, 2 mM Glutamine, 1 mM Pyruvate, pH 7.4) and monitored every 3 minutes following successive administration of inhibitors such as 2 μM of oligomycin, 2 μM of FCCP, and […] of Rotenone/AntimycinA. BCA protein assays were used to normalize metabolic rates to cell number."}, "[3]": {"target": "T1, BACH1 (Mus musculus, UniProt P97302, C438A/C464A/C495A/C649A)", "T1 construct": "Protein blots of BACH1 levels in BM1 and MB436 cells treated with Hemin for 4 or 24 hours; endogenous in cells; host or cells: BM1 (MDA-MB-231 derivative), MDA-MB-436, BT549", "T1 sequence (P97302 1-739 C438A/C464A/C495A/C649A)": "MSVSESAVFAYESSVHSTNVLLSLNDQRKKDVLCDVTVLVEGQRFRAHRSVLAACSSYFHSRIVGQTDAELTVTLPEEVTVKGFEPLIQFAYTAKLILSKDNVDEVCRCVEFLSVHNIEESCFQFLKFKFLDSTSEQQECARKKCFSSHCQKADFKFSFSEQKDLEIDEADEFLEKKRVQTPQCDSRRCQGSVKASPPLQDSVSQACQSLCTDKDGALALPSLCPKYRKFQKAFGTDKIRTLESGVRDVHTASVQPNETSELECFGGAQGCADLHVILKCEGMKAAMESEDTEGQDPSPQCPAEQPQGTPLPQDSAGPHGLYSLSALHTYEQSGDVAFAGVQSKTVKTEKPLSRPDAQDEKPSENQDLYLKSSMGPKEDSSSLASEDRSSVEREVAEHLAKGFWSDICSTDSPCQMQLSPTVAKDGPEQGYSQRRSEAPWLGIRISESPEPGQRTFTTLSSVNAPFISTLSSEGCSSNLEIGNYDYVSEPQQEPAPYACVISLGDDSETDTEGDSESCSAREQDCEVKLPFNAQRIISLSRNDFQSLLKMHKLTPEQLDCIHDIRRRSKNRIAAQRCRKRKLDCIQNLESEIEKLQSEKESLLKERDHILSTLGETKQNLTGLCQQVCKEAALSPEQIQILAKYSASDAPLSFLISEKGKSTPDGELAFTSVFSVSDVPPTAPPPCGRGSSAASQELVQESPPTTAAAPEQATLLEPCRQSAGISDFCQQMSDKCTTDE", "experiment": "Immunoblotting of BACH1 in cell lysates after hemin", "type": "cell-based, human", "conditions": "hemin 20 μM", "method": "Whole cell lysates were prepared using RIPA buffer (Sigma) with protease inhibitor cocktails (1:100 ThermoFisher) and phosphatase inhibitors (SimpleStop1, Gold Biotechnology) at 4° C. and quantified using Bradford assays for western blotting using antibodies against BACH1 (sc-271211; Santa Cruz), and alpha-TUBULIN (sc-28199; Santa Cruz). Blots were imaged and processed using a Licor Odyssey Fc, dual-mode imaging system (Licor)."}},
  "data": [
    {"smiles": "C=CC1=C(C)c2cc3[n-]c(cc4[n-]c(cc5nc(cc1n2)C(C)=C5C=C)c(C)c4CCC(=O)O)c(CCC(=O)O)c3C.[Cl-].[Fe+3]", "note": "[hemin, Chloro[3,7,12,17-tetramethyl-8,13-divinylporphyrin-2,18-dipropanoato(2-)]iron(III)]", "values": [
      {"measurement": "breast tumor growth / volume", "setting": "[1]", "value": "neither hemin nor metformin alone significantly altered tumor growth"},
      {"measurement": "ECAR", "setting": "[2]", "value": "lower basal ECAR"},
      {"measurement": "maximum OCR", "setting": "[2]", "value": "higher maximum OCR"},
      {"measurement": "spare respiratory capacity", "setting": "[2]", "value": "higher spare respiratory capacity"},
      {"measurement": "degradation of heme-resistant BACH1 mutant (Mut-Bach1)", "setting": "[3]", "value": "did not degrade Mut-Bach1"}
    ]}
  ]
}
